Data taken from US20250109140A1, “5-[5-(PIPERIDIN-4-YL)THIENO[3,2-C]PYRAZOL-2-YL]INDAZOLE DERIVATIVES AND RELATED COMPOUNDS AS MODULATORS FOR SPLICING NUCLEIC ACIDS AND FOR THE TREATMENT OF PROLIFERATIVE DISEASES” (REMIX THERAPUTICS INC., priority 2022, published 2025).
Counter-ions that a name gives are not always drawn. Like-named read-outs stand apart in the source and are kept apart here.

Assays:
[1] = test system: Target C mRNA; assay: Splicing RT-qPCR gene panel, Target C canonical junction (CJ) mRNA; type: cell-based; settings: Homo sapiens; Table 8; larger gene panel, decrease in CJ mRNA levels
In short: (§1)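 A673 or K562 cells were exposed for 24 h at 37 °C to an 11-point 3-fold dilution series (top 10 uM final, DMSO ≤0.25%). Lysates were analysed by one-step RT-qPCR for canonical (CJ) and alternative (AJ) junctions. Values were normalized to GAPDH, GUSB or PPIA and to DMSO (ΔΔCt), then converted to percentage response.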

[2] = test system: MYB mRNA; assay: Splicing RT-qPCR assay, MYB canonical (CJ) and alternative (AJ) junction mRNA; type: cell-based; settings: Homo sapiens; for EC50: AC50 = 50% response in AJ mRNA increase
In short: as §1

[3] = test system: SMN2 mRNA; assay: Splicing RT-qPCR gene panel, SMN2 canonical junction (CJ) mRNA; type: cell-based; settings: Homo sapiens; Table 8; larger gene panel, decrease in CJ mRNA levels
In short: as §1

[4] = test system: HTT mRNA; assay: Splicing RT-qPCR assay, HTT canonical (CJ) and alternative (AJ) junction mRNA; type: cell-based; settings: Homo sapiens; for EC50: AC50 = 50% response in AJ mRNA increase
In short: as §1

[5] = test system: Target C; assay: HiBiT protein abundance assay, Target C (K562 HiBiT knock-in cells); type: cell-based, human; settings: 24 hours treatment
In short: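 K562 HiBiT knock-in cells (10000/well) were treated 24 h at 37 °C with a 10-point 3-fold dilution series, top final concentration […], DMSO ≤0.25%. Target abundance was read by lytic HiBiT luminescence and normalized to unmodified K562 and DMSO controls. A four-parameter fit gave the concentration giving 50% of untreated abundance.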

[6] = test system: HiBiT-tagged MYB protein; assay: HiBiT protein abundance assay, MYB (K562 HiBiT knock-in cells); type: cell-based, human; settings: 24 hours treatment
In short: (§2)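 K562 cells carrying endogenous HiBiT-tagged targets were treated 24 h at 37 °C with 10-point 3-fold dilutions from 10 µM final (≤0.25% DMSO). Abundance read by lytic HiBiT luminescence, normalized to DMSO and unmodified-K562 controls; IC50 is the 4-parameter-fit concentration giving 50% of untreated signal.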

[7] = test system: HiBiT-tagged HTT protein; assay: HiBiT protein abundance assay, HTT (K562 HiBiT knock-in cells); type: cell-based, human; settings: 24 hours treatment
In short: as §2

[8] = test system: K562 (human chronic myelogenous leukemia) cells; assay: Cell viability, Cell Titer Glo 2.0 assay, K562 cells; type: cell-based; settings: 72 hours
In short: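 K562 cells seeded at 500 cells/well in IMDM + 10% FBS; compounds serially diluted in DMSO, then 1:100 in medium (final DMSO 0.1%). Incubated 72 h at 37° C, 5% CO2; viability read by Cell Titer Glo 2.0 luminescence against medium-only blank.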

[9] = Table 7, RT-qPCR, A673 or K562 cells, 24 hours treatment
[10] = Table 7, IC50 = 50% response in CJ mRNA decrease, RT-qPCR, A673 or K562 cells, 24 hours treatment, read-out: MYB CJ
[11] = Table 8, larger gene panel, decrease in CJ mRNA levels, read-out: MYB CJ IC50
[12] = Table 7, IC50 = 50% response in CJ mRNA decrease, RT-qPCR, A673 or K562 cells, 24 hours treatment, read-out: HTT CJ
[13] = Table 8, larger gene panel, decrease in CJ mRNA levels, read-out: HTT CJ IC50

Row | Compound | IC50 [1] [nM] | EC50 [2, 9] [nM] | IC50 [2, 10] [nM] | IC50 [2, 11] [nM] | IC50 [3] [nM] | EC50 [4, 9] [nM] | IC50 [4, 12] [nM] | IC50 [4, 13] [nM] | IC50 [5] [nM] | IC50 [6] [nM] | IC50 [7] [nM] | IC50 [8] [nM]
1 | Cc1cn2cc(-n3cc4sc(C5CCNCC5)cc4n3)cc(Cl)c2n1 [Compound 172] | 1000 to 10000 | 100 to 1000 | 1000 to 10000 | 100 to 1000 | 100 to 1000 | 100 to 1000 | 100 to 1000 | 100 to 1000 | 100 to 1000 | 1000 to 10000 | 100 to 1000 | 1000 to 10000
2 | Cc1cn2cc(-c3cc4cn(C5CCNCC5)nc4s3)cc(C)c2n1 [Compound 216] | 100 to 1000 | 100 to 1000 | 100 to 1000 | 100 to 1000 | < 100 | < 100 | < 100 | < 100 | < 100 | 100 to 1000 | < 100 | 100 to 1000
3 | Cc1cn2nc(-c3cc4cn(C5CCNCC5)nc4s3)c(O)c2c(C)n1 [Compound 213, 4,6-dimethyl-2-[2-(piperidin-4-yl)thieno[2,3-c]pyrazol-5-yl]pyrazolo[1,5-a]pyrazin-3-ol hydrochloride] | > 10000 | 1000 to 10000 | > 10000 | 1000 to 10000 | 1000 to 10000 | 1000 to 10000 | 1000 to 10000 | 1000 to 10000 | > 10000 | > 10000 | > 10000 | 1000 to 10000
4 | c1n[nH]cc1-n1cc2sc(C3CCNCC3)cc2n1 [Compound 176] | > 10000 | > 10000 | > 10000 | > 10000 | > 10000 | > 10000 | > 10000 | > 10000 | > 10000 | > 10000 | > 10000 | > 10000
5 | Cc1c(O)c(-c2nc3cn(C4CCNCC4)nc3s2)cc2cn(C)nc12 [Compound 1108, 2,7-dimethyl-5-(2-(piperidin-4-yl)-2H-pyrazolo[4,3-d]thiazol-5-yl)-2H-indazol-6-ol] | < 100 | < 100 | < 100 | < 100 | < 100 | < 100 | < 100 | < 100 | 1000 to 10000 | < 100 | 1000 to 10000 | 100 to 1000
6 | Cc1cn2nc(-c3cc4cn(C5CCNCC5)nc4s3)cc2c(C)n1 [Compound 222] | 1000 to 10000 | 1000 to 10000 | 1000 to 10000 | 1000 to 10000 | < 100 | 1000 to 10000 | 1000 to 10000 | 1000 to 10000 | 1000 to 10000 | 1000 to 10000 | 100 to 1000 | 1000 to 10000
7 | Cc1cn2nc(-n3cc4sc(C5CCNCC5)cc4n3)cc(C)c2n1 [Compound 101, 4-(2-[2,8-dimethylimidazo[1,2-b]pyridazin-6-yl]thieno[3,2-c]pyrazol-5-yl)piperidine] | < 100 | 100 to 1000 | 100 to 1000 | 100 to 1000 | < 100 | 100 to 1000 | < 100 | 100 to 1000 | < 100 | 100 to 1000 | < 100 | 100 to 1000
8 | Cc1cn2cc(-c3cc4cn(C5CCNCC5)nc4s3)nc(C)c2n1 [Compound 228] | 1000 to 10000 | 1000 to 10000 | 1000 to 10000 | 1000 to 10000 | 100 to 1000 | 100 to 1000 | 100 to 1000 | 100 to 1000 | 1000 to 10000 | 1000 to 10000 | 100 to 1000 | 1000 to 10000
9 | Cc1cn2nc(-n3cc4sc(C5CCNCC5)cc4n3)nc2c(C)n1 [Compound 170] | 1000 to 10000 | 1000 to 10000 | 1000 to 10000 | 1000 to 10000 | 1000 to 10000 | 1000 to 10000 | 1000 to 10000 | 1000 to 10000 | 1000 to 10000 | 1000 to 10000 | 1000 to 10000 | 1000 to 10000
10 | COc1c(-c2cc3cn(C4CCNCC4)nc3s2)cc2cn(C)nc2c1F [Compound 218] | 100 to 1000 | 100 to 1000 | 100 to 1000 | 100 to 1000 | < 100 | 100 to 1000 | < 100 | 100 to 1000 | 100 to 1000 | 100 to 1000 | < 100 | 100 to 1000
11 | Cn1cc2cc(-c3cc4cn([C@H]5CCNC[C@@H]5F)nc4s3)cc(F)c2n1 [Compound 190] | 100 to 1000 | 100 to 1000 | 100 to 1000 | 100 to 1000 | < 100 | 100 to 1000 | < 100 | 100 to 1000 | 1000 to 10000 | 1000 to 10000 | 100 to 1000 | 1000 to 10000
12 | Cn1cc2cc(-n3cc4sc(C5CCNCC5)cc4n3)c(O)cc2n1 [Compound 178] | 1000 to 10000 | 1000 to 10000 | 1000 to 10000 | 1000 to 10000 | 1000 to 10000 | 1000 to 10000 | 1000 to 10000 | 1000 to 10000 | 1000 to 10000 | 1000 to 10000 | 1000 to 10000 | 1000 to 10000
13 | Cc1cn2cc(-n3cc4cc(C5CCNCC5)sc4n3)cc(F)c2n1 [Compound 156] | 100 to 1000 | 1000 to 10000 | 100 to 1000 | 1000 to 10000 | < 100 | 100 to 1000 | < 100 | 100 to 1000 | < 100 | 100 to 1000 | < 100 | 100 to 1000
14 | Cn1cc2cc(-c3cc4cn(C5CCNCC5)nc4s3)c(O)c(F)c2n1 [Compound 215] | 100 to 1000 | 100 to 1000 | 1000 to 10000 | 100 to 1000 | < 100 | 100 to 1000 | 100 to 1000 | 100 to 1000 | 1000 to 10000 | 1000 to 10000 | 100 to 1000 | 1000 to 10000
15 | Cn1cc2cc(-c3nc4cn(C5CCNCC5)nc4s3)cc(F)c2n1 [Compound 1100, 7-fluoro-2-methyl-5-[2-(piperidin-4-yl)pyrazolo[4,3-d][1,3]thiazol-5-yl]indazole] | 100 to 1000 | 100 to 1000 | 100 to 1000 | 100 to 1000 | < 100 | 100 to 1000 | 100 to 1000 | 100 to 1000 | 100 to 1000 | 100 to 1000 | < 100 | 1000 to 10000
16 | Cn1cc2cc(-n3cc4cc(C5CCNCC5)sc4n3)cc(F)c2n1 [Compound 104, 7-fluoro-2-methyl-5-[5-(piperidin-4-yl)thieno[2,3-c]pyrazol-2-yl]indazole] | 100 to 1000 | 100 to 1000 | 100 to 1000 | 100 to 1000 | < 100 | 100 to 1000 | < 100 | 100 to 1000 | 100 to 1000 | 100 to 1000 | < 100 | 100 to 1000
17 | COc1c(-c2cc3cn(C4CCNCC4)nc3s2)cc(F)c2nn(C)cc12 [Compound 224] | > 10000 | > 10000 | > 10000 | > 10000 | > 10000 | > 10000 | > 10000 | > 10000 | > 10000 | > 10000 | > 10000 | > 10000
18 | Cc1cn2cc(-c3nc4cn(C5CCNCC5)nc4s3)nc(C)c2n1 [Compound 1105, 4-(5-{2,8-dimethylimidazo[1,2-a]pyrazin-6-yl}pyrazolo[4,3-d][1,3]thiazol-2-yl)piperidine] | > 10000 | > 10000 | > 10000 | > 10000 | 1000 to 10000 | > 10000 | > 10000 | > 10000 | > 10000 | 1000 to 10000 | 1000 to 10000 | > 10000
19 | Cc1nc2c(F)cc(-n3cc4sc(C5CCNCC5)cc4n3)cc2o1 [Compound 167] | 1000 to 10000 | 1000 to 10000 | 1000 to 10000 | 1000 to 10000 | 100 to 1000 | 100 to 1000 | 100 to 1000 | 100 to 1000 | 100 to 1000 | 100 to 1000 | 100 to 1000 | 1000 to 10000
